Experimental data: patent US11058678B2 (Enanta Pharmaceuticals, Inc., priority 2018, dated 2021)

Tested on: HBV (2.2.15 cells)
Experiment: Antiviral activity in 2.2.15 cells: reduction of viral product accumulation (qPCR of lysates, HBsAg or HBeAg ELISA)
Type: cell-based, hepatitis B virus (HBV)
Conditions: Hepatitis B virus, 120 h, day 5 post treatment, 50% reduction of viral product accumulation in lysates or supernatants vs no drug controls, readout (qPCR, HBsAg, HBeAg) not specified
Description: 2.2.15 cells are passaged upon attaining confluency in DMEM/F12 media in the presence of 10% FBS, Penn/Strep, and 250 ug/mL G418. Novel compounds are 5 fold serially diluted in DMSO and added to 96 well plates containing 35,000 cells/well at a 1:200 dilution so that the final concentration of DMSO is 0.5%. On day 5, post treatment cell lysates and supernatants are harvested for analysis.
Cells are lysed using Agilent Sidestep Lysis buffer, diluted 1:100 and quantified via quantitative real time PCR. Commercially available ELISA kits are used to quantitate the viral proteins HBsAg (Alpco) or HBeAg (US Biological) by following the manufacturer's recommended protocol after diluting samples to match the linear range of their respective assays. Irrespective of readout, compound concentrations that reduce viral product accumulation in the cell lysates or supernatants by 50% relative to no drug controls (EC50) are reported; EC50 ranges are as follows: A<0.1 μM; B 0.1-1 μM; C>1 μM.

Row | SMILES | EC50 [nM]
1 | Cn1ccc(-c2cc3c(c4c2OC(C)(C)C4)C[C@@H](C(C)(C)C)n2cc(C(=O)O)c(=O)cc2-3)n1 [Example 144, (S)-5-(tert-butyl)-2,2-dimethyl-12-(1-methyl-1H-pyrazol-3-yl)-9-oxo-2,3,4,9-tetrahydro-5H-furo[3,2-f]pyrido[2,1-a]isoquinoline-8-carboxylic Acid] | > 1000
2 | CC(C)[C@@H]1Cc2c(cc(-c3cn[nH]c3)c3c2CCO3)-c2cc(=O)c(C(=O)O)cn21 [Example 102, (S)-5-isopropyl-9-oxo-12-(1H-pyrazol-4-yl)-2,3,4,9-tetrahydro-5H-furo[3,2-f]pyrido[2,1-a]isoquinoline-8-carboxylic Acid] | < 100
3 | CC(C)[C@@H]1Cc2c(cc(N3CCC3)c3c2CCO3)-c2cc(=O)c(C(=O)O)cn21 [Example 117, (S)-12-(azetidin-1-yl)-5-isopropyl-9-oxo-2,3,4,9-tetrahydro-5H-furo[3,2-f]pyrido[2,1-a]isoquinoline-8-carboxylic Acid] | < 100
4 | CC(C)[C@@H]1Cc2c(cc(-n3cccn3)c3c2CCO3)-c2cc(=O)c(C(=O)O)cn21 [Example 116] | < 100
5 | COCCCOc1cc2c(cc1-c1ccccc1Cl)-c1cc(=O)c(C(=O)O)cn1[C@H]1[C@@H]2COC1(C)C [Example 139, (3aS,12bR)-10-(2-chlorophenyl)-11-(3-methoxypropoxy)-3,3-dimethyl-7-oxo-3,3a,7,12b-tetrahydro-1H-furo[3,4-c]pyrido[2,1-a]isoquinoline-6-carboxylic Acid] | < 100
6 | CC1(C)Cc2c3c(cc(-c4cnsc4)c2O1)-c1cc(=O)c(C(=O)O)cn1[C@H](C(C)(C)C)C3 [Example 145, (S)-5-(tert-butyl)-12-(isothiazol-4-yl)-2,2-dimethyl-9-oxo-2,3,4,9-tetrahydro-5H-furo[3,2-f]pyrido[2,1-a]isoquinoline-8-carboxylic Acid] | > 1000
7 | COCCCOc1cc2c(cc1-c1cnnn1C)-c1cc(=O)c(C(=O)O)cn1[C@H](C(C)(C)C)C2 [Example 48, (S)-6-(tert-butyl)-9-(3-methoxypropoxy)-10-(1-methyl-1H-1,2,3-triazol-5-yl)-2-oxo-6,7-dihydro-2H-pyrido[2,1-a]isoquinoline-3-carboxylic Acid] | < 100
8 | COCCCOc1cc2c(cc1-c1ccc(OC(C)C)cc1)-c1cc(=O)c(C(=O)O)cn1[C@H](C(C)(C)C)C2 [Example 38, (S)-6-(tert-butyl)-10-(4-isopropoxyphenyl)-9-(3-methoxypropoxy)-2-oxo-6,7-dihydro-2H-pyrido[2,1-a]isoquinoline-3-carboxylic Acid] | > 1000
9 | Cn1nccc1-c1cc2c(c3c1OC(C)(C)C3)C[C@@H](C(C)(C)C)n1cc(C(=O)O)c(=O)cc1-2 [Example 150, (S)-5-(tert-butyl)-2,2-dimethyl-12-(1-methyl-1H-pyrazol-5-yl)-9-oxo-2,3,4,9-tetrahydro-5H-furo[3,2-f]pyrido[2,1-a]isoquinoline-8-carboxylic Acid] | > 1000
10 | CC(C)[C@@H]1Cc2c(cc(-c3ccc(F)c(F)c3)c3c2CCO3)-c2cc(=O)c(C(=O)O)cn21 [Example 114, (S)-12-(3,4-difluorophenyl)-5-isopropyl-9-oxo-2,3,4,9-tetrahydro-5H-furo[3,2-f]pyrido[2,1-a]isoquinoline-8-carboxylic Acid] | > 1000
11 | COCCCOc1cc2c(cc1-c1cnco1)-c1cc(=O)c(C(=O)O)cn1[C@H]1[C@@H]2COC1(C)C [Example 121, (3aS,12bR)-11-(3-methoxypropoxy)-3,3-dimethyl-10-(oxazol-5-yl)-7-oxo-3,3a,7,12b-tetrahydro-1H-furo[3,4-c]pyrido[2,1-a]isoquinoline-6-carboxylic Acid] | < 100
12 | COCCCOc1cc2c(cc1-c1cccc(Cl)c1)-c1cc(=O)c(C(=O)O)cn1[C@H]1[C@@H]2COC1(C)C [Example 138, (3aS,12bR)-10-(3-chlorophenyl)-11-(3-methoxypropoxy)-3,3-dimethyl-7-oxo-3,3a,7,12b-tetrahydro-1H-furo[3,4-c]pyrido[2,1-a]isoquinoline-6-carboxylic Acid] | < 100
